Tests used:
plasma aldosterone (PAC) [1] = experiment: Phase 1 part 2 multiple ascending dose: pharmacodynamics, ACTH challenge; format: in vivo, human; details: for Aldosterone AUC0-24, mean (SD): Day 7; for return of baseline aldosterone levels by: multiple 120-mg doses
Description: In part 2, Compound A HBr or placebo was administered to a total of 36 healthy Caucasian men aged 19 to 54 years (inclusive) in 3 cohorts of 12 participants each. In each cohort, 9 participants were randomized to receive multiple doses of Compound A HBr and 3 participants were randomized to receive matching placebo. The participants received daily doses in the fed state from Day 1 to Day 7. The doses were administered in an ascending order per cohort. Progression to the next dose level and dose selection were based on available data from part 1 and the preceding dose cohort in part 2 (safety, tolerability, and PD data [up to 48 hours post-final dose] and available PK data [up to 24 hours post-final dose] from a minimum of 10 participants [Compound A HBr n≥7] in the preceding dose cohort). The final dose levels of Compound A HBr for part 2 were 40, 120, and 360 mg. An ACTH challenge test was performed on Day −2 and on Day 6 to evaluate Compound A HBr selectivity for aldosterone synthesis. Plasma concentrations of aldosterone and 11-deoxycortisol and serum concentrations of cortisol and 11-DOC were measured pre-ACTH dose and 30 and 60 minutes post-ACTH dose on Day −2 and Day 6.
(§1) Plasma concentrations of aldosterone, 11-deoxycortisol, and ACTH; renin activity; renin concentration; and serum concentrations of cortisol and 11-DOC were measured in all parts of the study. The amount of aldosterone, cortisol, sodium, and potassium excreted and the urinary log10 (10×Na^+/K^+) ratio were listed per collection interval.
(§2) PD parameters were derived by non-compartmental analysis using WinNonlin® Professional (version 6.3). AUC0-24 was determined where possible for plasma aldosterone and serum cortisol.
(§3) Log-transformed change from baseline (Day 1, pre-dose) at 24 hours and log-transformed change from baseline at 22 hours on Day 1 (where baseline is Day −1, 22 hours) in plasma aldosterone and serum cortisol were analyzed using a linear model with dose group (each Compound A HBr dose and pooled placebo) as a fixed effect with the corresponding Day 1 pre-dose as a covariate. The LSM difference between each Compound A HBr dose compared with placebo was obtained from the model with the 90% CI and then back-transformed (exponentiated) to obtain estimates of the ratio of adjusted geometric means and 90% CI. Log-transformed change from baseline (time-matched) from 0 to 24 hours post-dose in plasma aldosterone and serum cortisol as repeated measures was analyzed using a linear mixed model with dose group (each active Compound A HBr dose and pooled placebo) as fixed effects, corresponding time-matched values on Day −1 as covariate, and unstructured covariance. The pre-dose time point on Day 1 was used as the 24-hour time point on Day −1. The LSM difference between each Compound A HBr dose compared with placebo was obtained from the model together with the 90% CI, and then back-transformed to obtain estimates of the ratio of adjusted geometric means and 90% CIs. The calculated AUC parameters were analyzed using a linear model. The log-transformed parameter of interest was the dependent variable with dose group (each Compound A HBr dose and pooled placebo) as the fixed effect and log-transformed AUC0-24 on Day −1 as the covariate. The LSM difference between each Compound A HBr dose compared with placebo and 90% CIs was calculated and then back-transformed to obtain estimates of the ratio of adjusted geometric means and 90% CIs.

[2] = Phase 1 safety and tolerability; format: in vivo, human
Description: A 4-part, Phase 1 randomized, double-blind, placebo-controlled, first-in-human study was performed to determine the safety, tolerability, PK, and PD of single ascending doses (SADs; part 1) and multiple ascending doses (MADs; part 2) of Compound A HBr in healthy participants. The study also assessed whether there were sex (part 3) and age-related (part 4) effects on the PK of a single dose of Compound A HBr. The study was approved by the local independent ethics committee; the BEBO foundation in Assen, Netherlands; and the Central Committee on Research Involving Human Subjects in The Hague, Netherlands; and conducted according to the provisions of the Declaration of Helsinki. Written informed consent was obtained from each study participant before conducting any protocol-related procedures.
Safety measurements (adverse events [AE], safety laboratory, vital signs and electrocardiograms, physical examinations) were summarized and/or listed.

plasma aldosterone (PAC) [3] = experiment: Phase 1 part 1 single ascending dose: pharmacodynamics; format: in vivo, human; details: for PAC reduction compared with placebo: 24 hours post-dose; for Aldosterone AUC0-24, mean (SD): Day 1; for return of baseline aldosterone levels by: single 100-mg doses; for effect on cortisol: single ascending doses
Description: In part 1, Compound A HBr or placebo was administered to 64 healthy Caucasian men aged 18 to 55 years (inclusive) in 8 cohorts of 8 participants each. In each cohort, 6 participants were randomized to receive a single dose of Compound A HBr and 2 participants were randomized to receive matching placebo. All cohorts included 2 sentinel participants of whom 1 received Compound A HBr and 1 received matching placebo. The remaining 6 participants, of whom 5 received Compound A HBr and 1 received placebo, were dosed ≥24 hours following the sentinel participants. The dosing cohorts were 5, 10, 20, 50, 100, 200, 400, and 800 mg. Doses were administered in an ascending order per cohort, with a minimum 10-day interval between consecutive dose levels. Participants received a single dose of Compound A HBr or placebo in the fasted state.
as §1, §2, §3

cardiovascular system = experiment: Cardiovascular system in halothane-anesthetized dogs; format: in vivo, dog; details: intravenous infusion up to 3-mg/kg as free base; non-GLP
Description: Effects of Compound A on the cardiovascular system were evaluated with halothane-anesthetized dogs. Doses of 0, 0.3, 1, and 3 mg/kg of Compound A as free base were infused intravenously in ascending order to the same 3 male dogs at 0.1 mL/kg/min for 10 minutes cumulatively with 30 minutes interval between the start of infusion. Heart rate, systolic, diastolic, and mean blood pressure, cardiac output, total peripheral resistance, left ventricular end-diastolic pressure, maximum upstroke velocity of the left ventricular pressure, and electrocardiogram parameters (PR interval, QRS duration, QT interval, and QTcV) were evaluated.

## CC(=O)N[C@H]1CC[C@H](NC(=O)CN2CCN(c3nncc(-c4ccc(C)cc4)n3)CC2)CC1 [Compound A HBr]
Plasma aldosterone (PAC) [1]; 40 mg once daily
  Aldosterone AUC0-24, mean (SD): 1343 (702) ng × h/dL
Plasma aldosterone (PAC) [1]; 120 mg once daily
  Aldosterone AUC0-24, mean (SD): 1013 (312) ng × h/dL
Plasma aldosterone (PAC) [1]; 360 mg once daily
  Aldosterone AUC0-24, mean (SD): 771 (440) ng × h/dL
Plasma aldosterone (PAC) [1]; 360 mg, Day 6, compared to placebo
  11-DOC and 11-deoxycortisol concentrations after ACTH stimulation: trend in increase
Plasma aldosterone (PAC) [1]; 360 mg, after seven once-daily doses
  reduction in AUC0-24 for PAC compared to placebo: approximately −50%
Plasma aldosterone (PAC) [1]; Day 6, all multiple dose levels
  ACTH-stimulated cortisol response: no effect on the cortisol response
Plasma aldosterone (PAC) [1]; Day 6, all multiple dose levels, compared to placebo
  ACTH-stimulated aldosterone response: completely blunted
Plasma aldosterone (PAC) [1]; during multiple dosing
  changes in serum cortisol and plasma 11-deoxycortisol concentrations: No relevant changes from baseline
Plasma aldosterone (PAC) [1]
  return of baseline aldosterone levels by: ≤ 16 h
[2]; across all cohorts
  dizziness (of mild intensity), participants: 9 (10.3%)
[2]; healthy participants, all parts
  serious AEs: No serious AEs
Plasma aldosterone (PAC) [3]; single doses of 100 and 200 mg
  PAC reduction compared with placebo: approximately −40%
Plasma aldosterone (PAC) [3]; single doses of 400 and 800 mg
  PAC reduction compared with placebo: approximately −70%
Plasma aldosterone (PAC) [3]; single 5 mg
  Aldosterone AUC0-24, mean (SD): 1436 (531) ng × h/dL
Plasma aldosterone (PAC) [3]; single 10 mg
  Aldosterone AUC0-24, mean (SD): 1075 (418) ng × h/dL
Plasma aldosterone (PAC) [3]; single 20 mg
  Aldosterone AUC0-24, mean (SD): 911 (286) ng × h/dL
Plasma aldosterone (PAC) [3]; single 50 mg
  Aldosterone AUC0-24, mean (SD): 731 (247) ng × h/dL
Plasma aldosterone (PAC) [3]; single 100 mg
  Aldosterone AUC0-24, mean (SD): 562 (279) ng × h/dL
Plasma aldosterone (PAC) [3]; single 200 mg
  Aldosterone AUC0-24, mean (SD): 587 (115) ng × h/dL
Plasma aldosterone (PAC) [3]; single 400 mg
  Aldosterone AUC0-24, mean (SD): 403 (122) ng × h/dL
Plasma aldosterone (PAC) [3]; single 800 mg
  Aldosterone AUC0-24, mean (SD): 347 (108) ng × h/dL
Plasma aldosterone (PAC) [3]; single 5-50 mg
  PAC returned to values near baseline within: ≤ 24 hours post-dose
Plasma aldosterone (PAC) [3]; single 100-800 mg
  duration of PAC reduction: sustained until 24 hours post-dose
Plasma aldosterone (PAC) [3]
  return of baseline aldosterone levels by: ≤ 16 h
  effect on cortisol: no dose-related effect on cortisol
Plasma aldosterone (PAC) [3]; single doses ranging from 10 to 800 mg
  decrease of AUC0-24 for PAC vs placebo: −36% to −77

## CC(=O)N[C@H]1CC[C@H](NC(=O)CN2CCN(c3nncc(-c4ccc(C)cc4)n3)CC2)CC1 [Compound A]
Plasma aldosterone (PAC) [1]; 40- and 120-mg daily cohorts
  accumulation of serum 11-DOC: did not exceed the normal range
Plasma aldosterone (PAC) [1]; 360-mg daily dose cohort
  accumulation of serum 11-DOC: much more dramatic increase in 11-DOC
Plasma aldosterone (PAC) [1]; MAD, doses of 40, 120, and 360 mg
  maximum PAC suppression maintained for: approximately 12 hours
Plasma aldosterone (PAC) [1]; daily dosing
  return of baseline aldosterone levels at: ~16 h
Plasma aldosterone (PAC) [1]
  return of baseline aldosterone levels by: ≤ 16 h
Plasma aldosterone (PAC) [1]; once-daily administration, all dose levels compared to placebo
  serum 11-DOC, plasma renin activity, and potassium concentrations: appeared to increase
Plasma aldosterone (PAC) [1]; within 2 days of initiation, all 3 dose cohorts (part 2)
  rise in serum potassium: approximately 0.5 mmol/L
Cardiovascular system
  effects on the cardiovascular system: no effects
[2]; single doses up to 800 mg fasting, once-daily up to 360 mg fed, healthy men
  tolerability: well-tolerated
Plasma aldosterone (PAC) [3]; SAD, doses of ≥10 mg
  urinary log10 (10×Na+/K+) ratio: produced an increase
Plasma aldosterone (PAC) [3]; single 100- to 200-mg doses
  PAC (AUC0-24) reduced by: up to 40%
Plasma aldosterone (PAC) [3]
  return of baseline aldosterone levels by: ≤ 16 h
  effect on cortisol: no meaningful effect on serum cortisol levels
Plasma aldosterone (PAC) [3]; single 400- to 800-mg doses
  PAC (AUC0-24) reduced by: up to 70%

— patent publication US20250099475A1, “METHODS OF TREATING HYPERTENSION BY PERIODIC SUPPRESSION OF ALDOSTERONE SYNTHASE” (Mineralys Therapeutics, Inc., priority 2022, published 2025)
